The text below walks through data of patent publication US20160263081A1, “ANTIPARASITIC AGENT” (NAI INC., priority 2013, published 2016).

Assay [1] has as its system L. donovani promastigote. The note with it: cited from earlier work.
Assay [2] deals with L. major promastigote. The note with it: cited from earlier work.
For assay [3], the target named is T1, A. suum respiratory chain complex II (Ascaris suum, UniProt O44074+P92506+P92507).
T1 construct: measured using A. suum imago complex II; from tissue; host or cells: adult (imago) Ascaris suum
T1 sequence (Q33862 19-645 partner): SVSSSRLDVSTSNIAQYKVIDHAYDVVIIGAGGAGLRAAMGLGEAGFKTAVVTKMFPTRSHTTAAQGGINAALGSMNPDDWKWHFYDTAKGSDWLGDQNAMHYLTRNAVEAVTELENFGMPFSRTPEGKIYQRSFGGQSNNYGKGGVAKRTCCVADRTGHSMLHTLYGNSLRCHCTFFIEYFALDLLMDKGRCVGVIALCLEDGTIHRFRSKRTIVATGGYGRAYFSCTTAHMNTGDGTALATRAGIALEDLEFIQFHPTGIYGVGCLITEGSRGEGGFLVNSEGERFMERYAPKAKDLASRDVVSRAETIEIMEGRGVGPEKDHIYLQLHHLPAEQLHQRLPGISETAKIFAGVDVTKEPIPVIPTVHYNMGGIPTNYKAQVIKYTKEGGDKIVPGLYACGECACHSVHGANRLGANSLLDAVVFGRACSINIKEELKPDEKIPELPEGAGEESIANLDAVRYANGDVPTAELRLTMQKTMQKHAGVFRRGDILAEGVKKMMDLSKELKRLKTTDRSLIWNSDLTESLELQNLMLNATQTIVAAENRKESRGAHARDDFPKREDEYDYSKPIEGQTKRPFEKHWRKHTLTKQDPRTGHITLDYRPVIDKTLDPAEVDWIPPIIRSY
T1 sequence (O44074 22-282): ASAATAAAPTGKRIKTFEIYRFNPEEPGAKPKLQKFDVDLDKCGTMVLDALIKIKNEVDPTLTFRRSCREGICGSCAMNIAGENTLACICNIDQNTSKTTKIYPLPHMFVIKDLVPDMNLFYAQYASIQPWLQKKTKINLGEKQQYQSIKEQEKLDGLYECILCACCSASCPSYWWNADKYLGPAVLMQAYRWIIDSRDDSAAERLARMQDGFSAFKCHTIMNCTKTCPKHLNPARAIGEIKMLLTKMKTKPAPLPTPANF
T1 sequence (P92506 32-188): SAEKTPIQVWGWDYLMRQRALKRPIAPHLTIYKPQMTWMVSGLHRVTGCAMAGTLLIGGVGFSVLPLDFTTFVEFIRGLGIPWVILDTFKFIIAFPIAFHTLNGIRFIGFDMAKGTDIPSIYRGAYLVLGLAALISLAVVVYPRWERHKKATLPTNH
T1 sequence (P92507 26-156): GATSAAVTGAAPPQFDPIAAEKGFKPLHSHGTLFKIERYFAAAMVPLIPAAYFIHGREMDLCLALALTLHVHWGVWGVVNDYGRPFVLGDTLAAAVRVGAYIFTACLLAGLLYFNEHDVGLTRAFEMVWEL
Briefly: biochemical.

The next assay has as its system T. mentagrophytes. To be noted: glycol salicylate ointment containing 1% siccanin applied 3-8 days after infection, albino guinea pigs, N=20; cited from earlier work.
The test system of assay [4] is L. tarentolae complex II SDH activity. Briefly: Succinate dehydrogenase (SDH) reaction with PMS and MTT, L. tarentolae complex II. In kind it is biochemical, Leishmania tarentolae. To be noted: 50 μM siccanin. The procedure:
(§1) In order to estimate the inhibitory mechanism of siccanin against complex II, the inhibitory pattern was determined by Lineweaver-Burk plot using succinate and quinone as the substrates. As samples for measurement, nematode complex II from A. suum and complex II from L. tarentolae, which is an easy-to-handle trypanosomatid, were used. […] The SDH activity is catalyzed by only subunits Fp and Ip of complex II and the quinone-binding domain is not essential for the reaction.

In assay [5] the test system is Trychophyton spp., Epidermophyton floccosum, and Microsporium gypseum. To be noted: cited from earlier work.
Assay [6] relates to T. cruzi amastigote. Briefly: Count of T. cruzi amastigotes infecting mouse cells. The class given is cell-based, Trypanosoma cruzi. The source says: (§2) Siccanin inhibits trypanosomatid and plasmodia complex II with IC50 values on the nM order. Based on this fact, the present inventors further measured the impact of siccanin on the proliferation of parasites (Table 3). The species of the organisms used in the present study were: nonpathogenic leishmanial protozoan L. tarentolae promastigote (insect form), cutaneous leishmaniasis pathogen L. major promastigote (insect form), visceral leishmaniasis pathogen L. donovani promastigote (insect form), related species of African sleeping sickness pathogen T. b. brucei bloodstream form, Chagas disease pathogen T. cruzi amastigote (cell form), and plasmodia P. falciparum erythrocytic stage (Table 3). T. b. brucei bloodstream form and T. cruzi amastigote correspond to the stages found in mammalian hosts and can be used as target forms in drug treatments for African trypanosomiasis and Chagas disease.
(§3) In the presence of 0.05 to 50 μM siccanin, the proliferation of L. tarentolae promastigote, L. donovani promastigote, L. major promastigote, and T. brucei bloodstream form was measured by Alamar Blue method. […] The growth inhibitory effect of siccanin on T. cruzi was evaluated by counting the T. cruzi amastigote population that infected mouse cells. As compared with DMSO control, the number of the protozoa decreased by 50% in the presence of 10 μM siccanin. […]

In the next assay the test system is T. b. brucei complex II. The class given is biochemical, Trypanosoma brucei brucei.
The subject of assay [7] is T. b. brucei bloodstream form. Briefly: Proliferation by Alamar Blue method, T. b. brucei bloodstream form. In kind it is cell-based. To be noted: Trypanosoma brucei, read-out: Celluler IC50.
Text: as §2, §3

The test system of assay [8] is T. mentagrophytes respiratory chain complex II. The note with it: cited from earlier work.
For another assay, the system named is L. tarentolae complex II. The class given is biochemical, Leishmania tarentolae.
Assay [9] relates to L. major promastigote. Briefly: Proliferation by Alamar Blue method, L. major promastigote. The class given is cell-based. To be noted: Leishmania major, read-out: Celluler IC50.
Text: as §2, §3

Assay [10] concerns T. mentagrophytes mitochondria. To be noted: cited from earlier work.
The target of another assay is rat complex II (Rattus norvegicus, UniProt P21913+Q641Z9+Q6PCT8). To be noted: cited from earlier work.
Assay [11] relates to L. donovani promastigote. Briefly: Proliferation by Alamar Blue method, L. donovani promastigote. In kind it is cell-based. To be noted: Leishmania donovani.
Text: as §2, §3

The subject of assay [12] is L. tarentolae promastigote. Briefly: Proliferation by Alamar Blue method, L. tarentolae promastigote. In kind it is cell-based. The note with it: Leishmania tarentolae, read-out: Celluler IC50.
Text: as §2, §3

The subject of another assay is T. cruzi complex II. In kind it is biochemical, Trypanosoma cruzi.
Assay [13] has as its target L. tarentolae respiratory chain complex II. Briefly: Lineweaver-Burk inhibition pattern, L. tarentolae complex II. The class given is biochemical, Leishmania tarentolae. To be noted: for Ki: L. tarentolae SQR activity, for quinone (ubiquinone 1). As to the method:
FIG. 2 is a graph which represents the inhibition pattern of siccanin against L. tarentolae respiratory chain complex II.
as §1

The target of assay [14] is T2, pig complex II (Sus scrofa, UniProt A5GZW8+D0VWV4+Q007T0). In kind it is biochemical.
T2 sequence (Q0QF01 43-664 partner): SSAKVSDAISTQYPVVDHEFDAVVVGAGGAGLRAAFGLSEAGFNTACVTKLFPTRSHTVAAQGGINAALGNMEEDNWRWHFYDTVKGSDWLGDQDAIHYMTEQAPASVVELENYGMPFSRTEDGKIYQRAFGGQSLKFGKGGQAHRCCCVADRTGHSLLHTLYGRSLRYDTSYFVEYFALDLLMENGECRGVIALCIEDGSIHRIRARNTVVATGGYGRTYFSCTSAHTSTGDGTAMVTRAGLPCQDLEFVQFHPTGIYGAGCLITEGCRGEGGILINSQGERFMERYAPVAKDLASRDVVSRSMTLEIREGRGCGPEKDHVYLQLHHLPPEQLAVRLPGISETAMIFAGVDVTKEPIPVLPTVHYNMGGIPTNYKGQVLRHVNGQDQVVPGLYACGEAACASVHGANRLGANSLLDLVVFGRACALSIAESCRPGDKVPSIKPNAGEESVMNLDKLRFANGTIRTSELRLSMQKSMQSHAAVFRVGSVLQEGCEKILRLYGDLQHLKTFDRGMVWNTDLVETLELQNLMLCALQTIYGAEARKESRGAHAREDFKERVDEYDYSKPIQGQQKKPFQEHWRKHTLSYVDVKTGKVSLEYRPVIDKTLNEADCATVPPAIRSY
T2 sequence (Q007T0 29-280): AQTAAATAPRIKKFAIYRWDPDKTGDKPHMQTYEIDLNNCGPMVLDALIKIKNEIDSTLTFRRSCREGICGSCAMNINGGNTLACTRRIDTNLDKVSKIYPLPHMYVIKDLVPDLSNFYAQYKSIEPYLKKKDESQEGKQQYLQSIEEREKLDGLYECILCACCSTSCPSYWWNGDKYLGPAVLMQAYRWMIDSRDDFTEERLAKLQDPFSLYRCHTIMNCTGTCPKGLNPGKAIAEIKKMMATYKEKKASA
T2 sequence (D0VWV4 30-169): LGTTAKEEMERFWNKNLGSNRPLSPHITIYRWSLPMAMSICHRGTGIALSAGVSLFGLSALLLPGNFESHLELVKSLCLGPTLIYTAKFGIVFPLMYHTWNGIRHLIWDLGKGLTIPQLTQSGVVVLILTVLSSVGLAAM
T2 sequence (A5GZW8 57-159 limits assumed): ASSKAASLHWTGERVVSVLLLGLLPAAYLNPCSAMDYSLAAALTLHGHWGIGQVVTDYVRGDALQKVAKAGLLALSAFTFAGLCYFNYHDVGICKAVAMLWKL
Another assay deals with A. simplex complex II (Anisakis simplex, UniProt A0A0M3JRB2+A0A0M3KB13+A0A3P6RGD8). Briefly: biochemical.
A. simplex complex II, sequence (A0A0M3JRB2 24-279): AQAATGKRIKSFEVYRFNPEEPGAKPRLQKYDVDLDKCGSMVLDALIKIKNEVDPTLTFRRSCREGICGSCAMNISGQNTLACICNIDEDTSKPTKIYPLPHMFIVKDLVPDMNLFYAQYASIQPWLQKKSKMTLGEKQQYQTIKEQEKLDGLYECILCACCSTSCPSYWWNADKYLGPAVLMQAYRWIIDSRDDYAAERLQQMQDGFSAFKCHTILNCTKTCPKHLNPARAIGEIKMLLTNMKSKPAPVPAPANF
A. simplex complex II, sequence (A0A3P6RGD8 1-99): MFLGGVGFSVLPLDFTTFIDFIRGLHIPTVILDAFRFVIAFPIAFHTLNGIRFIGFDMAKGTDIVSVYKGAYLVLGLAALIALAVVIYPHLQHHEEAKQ
A. simplex complex II, sequence (A0A0M3KB13 31-157): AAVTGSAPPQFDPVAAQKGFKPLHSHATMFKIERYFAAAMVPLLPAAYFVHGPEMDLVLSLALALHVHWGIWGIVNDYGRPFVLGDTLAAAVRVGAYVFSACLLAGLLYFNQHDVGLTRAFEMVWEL
A. simplex complex II, sequence (A0A0M3KCD2 1-354 partner): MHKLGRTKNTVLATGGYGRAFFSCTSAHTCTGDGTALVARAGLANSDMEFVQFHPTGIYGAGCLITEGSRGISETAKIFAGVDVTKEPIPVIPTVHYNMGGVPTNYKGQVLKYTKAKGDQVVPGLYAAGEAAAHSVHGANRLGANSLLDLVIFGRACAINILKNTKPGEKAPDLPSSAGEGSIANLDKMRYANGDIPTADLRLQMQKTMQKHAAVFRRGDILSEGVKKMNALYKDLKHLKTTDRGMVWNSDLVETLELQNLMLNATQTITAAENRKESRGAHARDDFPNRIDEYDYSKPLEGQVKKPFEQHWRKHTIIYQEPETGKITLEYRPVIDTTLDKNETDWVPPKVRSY
For assay [15], the target named is T3, A. suum complex II SDH activity (Ascaris suum, UniProt O44074+P92506+P92507).
T3 construct: measured using A. suum imago complex II; from tissue; host or cells: adult (imago) Ascaris suum
Briefly: Succinate dehydrogenase (SDH) reaction with PMS and MTT, A. suum complex II. The class given is biochemical. To be noted: 50 μM siccanin. The procedure: as §1

The subject of another assay is H. contortus complex II. The class given is biochemical, Haemonchus contortus.
The target of assay [16] is T2, pig complex II. To be noted: Non-Patent Document 21; cited from earlier work.
In the next assay the test system is D. immitis microfilariae. The class given is cell-based, Dirofilaria immitis.
The test system of a further assay is D. immitis complex II. In kind it is biochemical, Dirofilaria immitis.
For assay [17], the system named is P. falciparum erythrocytic stage. Briefly: P. falciparum proliferation by LDH assay. In kind it is cell-based, Plasmodium falciparum. The note with it: read-out: Celluler IC50.
Text: as §2, §3

Assay [18] addresses Escherichia coli complex II (Escherichia coli, UniProt P07014+P0AC44+P69054). To be noted: cited from earlier work.
Assay [19] relates to Pseudomonas aeruginosa complex II. To be noted: cited from earlier work.
Assay [20] deals with T1, A. suum respiratory chain complex II. Briefly: Lineweaver-Burk inhibition pattern, A. suum complex II. In kind it is biochemical. To be noted: for Ki: A. suum SQR activity, for quinone (decylubiquinone). The procedure:
FIG. 1 is a graph which represents the inhibition pattern of siccanin against A. suum respiratory chain complex II.
as §1

For a further assay, the system named is P. falciparum complex II. The class given is biochemical, Plasmodium falciparum.
Assay [21] has as its system T. cruzi amastigote. The note with it: cited from earlier work.
The target of a further assay is Ascaris suum complex II (Ascaris suum, UniProt O44074+P92506+P92507). To be noted: A. suum complex II; cited from earlier work.
[22] abbreviates: complex II alone, read-out: Ki1.
[23] abbreviates: complex of complex II and ubiquinone, read-out: Ki2.
The mark [24] stands for this setting: A. suum complex II, Lineweaver-Burk plot.

“And” between values parts separate entries of the source, which are not always exact repeats. Equal entries are not always repeated. Where two headings read alike, the source gives them in different places.

Escherichia coli complex II, sequence (P0AC41 whole entry partner): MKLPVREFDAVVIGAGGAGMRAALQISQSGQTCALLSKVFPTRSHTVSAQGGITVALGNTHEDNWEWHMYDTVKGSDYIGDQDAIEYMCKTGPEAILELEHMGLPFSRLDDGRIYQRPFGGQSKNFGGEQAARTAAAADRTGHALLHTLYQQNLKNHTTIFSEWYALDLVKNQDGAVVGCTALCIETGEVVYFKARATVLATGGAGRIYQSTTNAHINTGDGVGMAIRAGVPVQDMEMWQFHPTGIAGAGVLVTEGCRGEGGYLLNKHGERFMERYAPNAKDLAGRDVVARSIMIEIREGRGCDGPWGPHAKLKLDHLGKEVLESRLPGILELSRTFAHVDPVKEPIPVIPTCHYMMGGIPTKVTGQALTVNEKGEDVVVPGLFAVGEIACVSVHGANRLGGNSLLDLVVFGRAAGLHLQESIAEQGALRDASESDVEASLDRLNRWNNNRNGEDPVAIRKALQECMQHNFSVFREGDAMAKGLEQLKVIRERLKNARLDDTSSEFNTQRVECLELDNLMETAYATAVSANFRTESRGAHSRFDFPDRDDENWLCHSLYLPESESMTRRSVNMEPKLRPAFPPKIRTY
Escherichia coli complex II, sequence (P07014 whole entry): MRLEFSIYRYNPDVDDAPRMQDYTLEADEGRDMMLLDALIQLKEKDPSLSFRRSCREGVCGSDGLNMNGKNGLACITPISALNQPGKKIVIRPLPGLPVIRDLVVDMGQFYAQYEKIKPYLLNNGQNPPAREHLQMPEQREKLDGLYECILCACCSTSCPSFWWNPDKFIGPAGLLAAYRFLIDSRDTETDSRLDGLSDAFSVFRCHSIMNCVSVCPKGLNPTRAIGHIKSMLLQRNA
Escherichia coli complex II, sequence (P69054 whole entry): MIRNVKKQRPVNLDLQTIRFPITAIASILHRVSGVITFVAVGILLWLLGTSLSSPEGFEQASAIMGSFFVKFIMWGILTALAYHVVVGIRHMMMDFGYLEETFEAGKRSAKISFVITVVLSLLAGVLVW
Escherichia coli complex II, sequence (P0AC44 whole entry): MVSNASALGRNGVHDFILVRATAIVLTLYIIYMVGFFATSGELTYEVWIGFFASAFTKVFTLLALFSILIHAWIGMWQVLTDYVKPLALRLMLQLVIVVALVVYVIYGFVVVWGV

Turning to `CCCCCCCCCCCCCCCCOP(=O)([O-])OCC[N+](C)(C)C` [miltefosine], the figures for the IC50 with L. donovani promastigote [1] and in the assay with L. major promastigote [2] were approximately 450 nM and approximately 13100 nM, respectively.
With `Cc1cc(O)c2c(c1)O[C@@]1(C)CC[C@H]3C(C)(C)CCC[C@]34CO[C@@H]2[C@H]41` [siccanin], the IC50 was 5.7 nM in [3]; 10000 nM with T. cruzi amastigote [6] (Trypanosoma cruzi, T. cruzi amastigote in mouse cells, read-out: Celluler IC50); 370 nM in the assay with T. b. brucei complex II (read-out: SQR IC50); 8300 nM in assay [7]; 87 nM in assay [8]; 190 nM in the assay on L. tarentolae complex II (read-out: SQR IC50). Moreover, the IC50 is 13000 nM with L. major promastigote [9]; 9300 nM at rat complex II; 700 nM in the assay on L. donovani promastigote [11] (read-out: Celluler IC50); 700 nM with L. donovani promastigote [11] (read-out: IC50); 4400 nM in assay [12]; 1200 nM in the assay on T. cruzi complex II (read-out: SQR IC50). In addition, the IC50 against A. simplex complex II was 11.2 nM; in the assay on H. contortus complex II (read-out: SQR IC50), 18.2 nM; at pig complex II [16], 861000 nM; in the assay with D. immitis complex II (read-out: SQR IC50), 13.8 nM; in [17] (Plasmodium falciparum), 15500 nM; in assay [17] it was 16000 nM. For the same compound, the figures for the IC50 (in assay [18]; in [19] (Pseudomonas aeruginosa complex II); with P. falciparum complex II) were 268000 nM, 870 nM and 98 nM, respectively. Besides, the Selectivity in assay [3] is on record as 180,000 fold; in the assay on T. b. brucei complex II, 3189 fold; in the assay with L. tarentolae complex II it was 4532 fold; in the assay with T. cruzi complex II, 718 fold; at pig complex II [14], 1; at A. simplex complex II, 76875 fold. The Selectivity in the assay on H. contortus complex II is given as 47308 fold; in the assay on D. immitis complex II it was 62391 fold; in the assay with P. falciparum complex II, 8675. The “selectivity relative to the selectivity of flutolanil” value in [3] is recorded as “about 20 fold”. For the same compound, the “subjects whose skin was completely cured” value in the assay with T. mentagrophytes was 85-100%. In addition, the “inhibition of SDH activity” value in [4] and in [15] was “no inhibitory effects” throughout. The minimal inhibitory concentration (MIC) in assay [5] is 0.6 to 6.3 µg/mL. The “decrease in the number of the protozoa compared with DMSO control” value with T. cruzi amastigote [6] (10 μM siccanin) is given as 50%. In addition, the “inhibition of NADH- or ascorbate-dependant oxygen consumption” value in assay [10] is on record as “does not inhibit”. In addition, the Ki in assay [13] (setting [22]) is 39 nM; in [13] (setting [23]), 102 nM; in assay [20] (setting [22]) it was 3 nM and 5.2 nM; in [20] (setting [23]), 8.7 nM and 9.9 nM. Moreover, the “inhibitory pattern for quinone” value in assay [13] (L. tarentolae complex II, Lineweaver-Burk plot) is given as “mixed inhibition”; in assay [20] (setting [24]), “mixed inhibition”. Moreover, the “Motility (%)” value is 100% with D. immitis microfilariae (5 μM, 0 hr); 75% with D. immitis microfilariae (5 μM, 24 hr); 50% in the assay with D. immitis microfilariae (5 μM, 48 hr); 25% in the assay on D. immitis microfilariae (50 μM, 0 hr); 0% in the assay on D. immitis microfilariae (50 μM, 24 hr); 0% in the assay on D. immitis microfilariae (50 μM, 48 hr). Moreover, the “inhibition mode against quinone” value in assay [19] (membrane fraction of Pseudomonas aeruginosa) was “mixed inhibition”. For the same compound, in assay [20] (setting [24]), the “inhibitory pattern for succinate” value was “non-competitive inhibition”.
As to `CC1CS(=O)(=O)CCN1/N=C/c1ccc([N+](=O)[O-])o1` (stereo not shown) [nifurtimox], the IC50 in the assay on T. cruzi amastigote [21] was approximately 3500 nM.
Turning to ivermectin [reference compound], the “Motility (%)” value is given as 100% in the assay with D. immitis microfilariae (5 μM, 0 hr); 75% in the assay on D. immitis microfilariae (5 μM, 24 hr); 50% with D. immitis microfilariae (5 μM, 48 hr); 100% in the assay with D. immitis microfilariae (50 μM, 0 hr); 50% with D. immitis microfilariae (50 μM, 24 hr); 50% in the assay with D. immitis microfilariae (50 μM, 48 hr).
Consider `CC(C)Oc1cccc(NC(=O)c2ccccc2C(F)(F)F)c1` [flutolanil], for which the “selectivity over pig complex II” value at Ascaris suum complex II is 800 fold.
On to `C[C@@H]1[C@H](O)[C@@H](C)/C=C/C=C/C=C/C=C/C=C/C=C/C=C/[C@H](O[C@@H]2O[C@H](C)[C@@H](O)[C@H](N)[C@@H]2O)C[C@@H]2O[C@](O)(C[C@@H](O)C[C@@H](O)[C@H](O)CC[C@@H](O)C[C@@H](O)CC(=O)O[C@H]1C)C[C@H](O)[C@H]2C(=O)O` [Amphotericin B], for which the figures for the half-maximal inhibitory concentration (IC50) in the assay on L. donovani promastigote [1] and with L. major promastigote [2] were approximately 12 nM and approximately 43 nM, respectively.
Turning to `O=C(Cn1ccnc1[N+](=O)[O-])NCc1ccccc1` [benznidazole], the IC50 in the assay on T. cruzi amastigote [21] was approximately 22000 nM.
